From US5010102A, “Anti-ulcer 5-(2-substituted ethenyl)-3(2H)-furanones” (American Home Products Corp., priority 1990, dated 1991)

The compounds below were run on gastric mucosal lesions produced by ethanol (assay: prevention of gastric mucosal lesions produced by ethanol in rats (cytoprotective/anti-ulcer, Robert et al.)). Settings: Rattus norvegicus; 10 mg/kg, oral, usually 1 hour before ethanol; male Sprague-Dawley rats; read-out: percentage inhibition of lesion formation.
Format: in vivo
Experimental: The rats were placed in individual cages and denied water 2 hours or more before testing. At a fixed time before administration of ethanol (usually 1 hour), the animals were orally administered either the test compound or its water-carboxymethylcellulose vehicle. Ethanol was then administered orally at a dose of 1 mL per animal. One hour after administration of the ethanol, the animals were sacrificed and their stomachs removed, cut along the greater curvature and flushed clean with tap water. Macroscopic lesions on the gastric mucosa were graded from 0-3 based upon the absence of lesions to the presence of lesions which approximate 6 millimeters in length. Comparison of the treated group with the control group permits expression of the results as percentage inhibition of lesion formation as a direct measure of cytoprotection. […] The results of these studies are given at the end of each example illustrating the preparation of the tested compound, supra, as the percent inhibition or ED50 where the latter value was determined.

Structure (SMILES) | inhibition in vivo at 10 mg/kg [%]
Cn1cccc1/C=C/C1=CC(=O)C(C)(C)O1 [Example 16, 2,2-Dimethyl-5-[2-(1-methyl-2-pyrrolyl)ethenyl]-3(2H)-furanone] | 32
CC1(C)OC(/C=C/c2cnccn2)=CC1=O [Example 21, 2,2-Dimethyl-5-[2-(2-pyrazinyl)ethenyl]-3(2H)-furanone] | 56
CC1(C)OC(/C=C/c2cccs2)=CC1=O [Example 23, 2,2-Dimethyl-5-[2-(2-thienyl)ethenyl]-3(2H)-furanone] | 1
CC1(C)OC(/C=C/c2cc3ccccc3s2)=CC1=O [Example 24, 5-[2-(Benzo[b]thien-2-yl)ethenyl]-2,2-dimethyl-3(2H)-furanone] | 17
CC1(C)OC(/C=C/c2ccoc2)=CC1=O [Example 25, 5-[2-(3-Furanyl)ethenyl]-2,2-dimethyl-3(2H)-furanone] | 35
CC1(c2ccccc2)OC(/C=C/c2ccncc2)=CC1=O (stereo not drawn) [Example 27, 2-Methyl-2-phenyl-5-[2-(4-pyridinyl)ethenyl]-3(2H)-furanone] | 44
CC1(c2ccccc2)OC(/C=C/c2ccc(C#N)cc2)=CC1=O (stereo not drawn) [Example 29, 4-[2-[2,3-Dihydro-2-methyl-3-oxo-2-phenyl-5-furanyl]ethenyl]benzonitrile] | 4
CC1(c2ccc(F)cc2)OC(/C=C/c2ccc(C#N)cc2)=CC1=O (stereo not drawn) [Example 31, 4-[2-[2,3-Dihydro-2-(4-fluorophenyl)-2-methyl-3-oxo-5-furanyl]ethenyl]benzonitrile] | 1
CC1(c2ccc(F)cc2)OC(/C=C/c2ccccn2)=CC1=O (stereo not drawn) [Example 32, 2-Methyl-2-(4-fluorophenyl)-5-[2-(2-pyridinyl)ethenyl]-3(2H)-furanone] | 92
CC1(c2ccc(F)cc2)OC(/C=C/c2ccsc2)=CC1=O (stereo not drawn) [Example 33, 2-(4-Fluorophenyl)-2-methyl-5-[2-(3-thienyl)ethenyl]-3(2H)-furanone] | 22

Same assay, conditions: Rattus norvegicus; 25 mg/kg, oral, usually 1 hour before ethanol; male Sprague-Dawley rats; read-out: percentage inhibition of lesion formation

Structure (SMILES) | inhibition in vivo at 25 mg/kg [%]
COc1cc(/C=C/C2=CC(=O)C(C)(C)O2)cc(OC)c1OC [Example 1, 2,2-Dimethyl-5-[2-(3,4,5-trimethoxyphenyl)ethenyl]-3(2H)-furanone] | 81
CC1(C)OC(/C=C/c2ccc(F)cc2F)=CC1=O [Example 3, 5-[2-(2,4-Difluorophenyl)ethenyl]-2,2-dimethyl-3(2H)-furanone] | 52
CC1(C)OC(/C=C/c2ccc(F)c(F)c2)=CC1=O [Example 4, 5-[2-(3,4-Difluorophenyl)ethenyl]-2,2-dimethyl-3(2H)-furanone] | 47
CC1(C)OC(/C=C/c2ccc(Br)cc2)=CC1=O [Example 5, (E)-2,2-Dimethyl-5-[2-(4-bromophenyl)ethenyl]-3(2H)-furanone] | 63
CC1(C)OC(/C=C/c2ccc(C(F)(F)F)cc2)=CC1=O [Example 11, 2,2-Dimethyl-5-[2-[4-(trifluoromethyl)phenyl]ethenyl]-3(2H)-furanone] | 30
CSc1ccc(/C=C/C2=CC(=O)C(C)(C)O2)cc1 [Example 12, (E)-2,2-Dimethyl-5-[2-[4-(methylthio)phenyl]ethenyl]-3(2H)-furanone] | 5
CC1(C)OC(/C=C/c2ccc(S(C)(=O)=O)cc2)=CC1=O [Example 13, 2,2-Dimethyl-5-[2-[4-(methylsulfonyl)phenyl]ethenyl]-3(2H)-furanone] | 56

Same assay, conditions: Rattus norvegicus; oral, usually 1 hour before ethanol; male Sprague-Dawley rats; calculated from a series of dosage levels; read-out: ED50 (dose at which half the animals did not develop lesions significantly different from the control group)

Structure (SMILES) | ED50 [mg/kg]
CC1(C)OC(/C=C/c2ccc(F)cc2)=CC1=O [Example 2, 2,2-Dimethyl-5-[2-(4-fluorophenyl)ethenyl]-3(2H)-furanone] | 11
CC1(C)OC(/C=C/c2ccc(Cl)cc2)=CC1=O [Example 6, 2,2-Dimethyl-5-[2-(4-chlorophenyl)ethenyl]-3(2H)-furanone] | 10.3
CC1(C)OC(/C=C/c2cc(Cl)cc(Cl)c2)=CC1=O [Example 10, 5-[2-(3,5-Dichlorophenyl)ethenyl]-2,2-dimethyl-3(2H)-furanone] | 9
CC1(C)OC(/C=C/c2ccc(S(C)(=O)=O)cc2)=CC1=O [Example 13, 2,2-Dimethyl-5-[2-[4-(methylsulfonyl)phenyl]ethenyl]-3(2H)-furanone] | 10.6
CC1(C)OC(/C=C/c2ccc(C#N)cc2)=CC1=O [Example 14, 4-[2-(2,3-Dihydro-2,2-dimethyl-3-oxo-5-furanyl)ethenyl]benzonitrile] | 15
CC1(C)OC(/C=C/c2ccccn2)=CC1=O [Example 17, 2,2-Dimethyl-5-[2-(2-pyridinyl)ethenyl]-3(2H)-furanone] | 9
CC1(C)OC(/C=C/c2ccncc2)=CC1=O [Example 18, 2,2-Dimethyl-5-[2-(4-pyridinyl)ethenyl]-3(2H)-furanone] | 4
CC1(C)OC(/C=C/c2cccnc2)=CC1=O [Example 19, 2,2-Dimethyl-5-[2-(3-pyridinyl)ethenyl]-3(2H)-furanone] | 9.3
CC1(C)OC(/C=C/c2ccnc3ccccc23)=CC1=O [Example 20, 5-[2-(4-Quinolinyl)ethenyl]-2,2-dimethyl-3(2H)-furanone] | 2.5
CC1(C)OC(/C=C/c2ccsc2)=CC1=O [Example 22, 2,2-Dimethyl-5-[2-(3-thienyl)ethenyl]-3(2H)-furanone] | 4
CC1(c2ccccc2)OC(/C=C/c2cccnc2)=CC1=O (stereo not drawn) [Example 26, 2-Phenyl-2-methyl-5-[2-(3-pyridinyl)ethenyl]-3(2H)-furanone] | 5
CC1(c2ccccc2)OC(/C=C/c2ccccn2)=CC1=O (stereo not drawn) [Example 28, 2-Methyl-2-phenyl-5-[2-(2-pyridinyl)ethenyl]-3(2H)-furanone] | 6
CC1(c2ccc(F)cc2)OC(/C=C/c2ccccn2)=CC1=O (stereo not drawn) [Example 32, 2-Methyl-2-(4-fluorophenyl)-5-[2-(2-pyridinyl)ethenyl]-3(2H)-furanone] | 3.5
